{"source": "patent US11896561B2", "about": "“Compositions including a cannabinoid and protocatechuic acid” (priority 2021, dated 2024)", "key": {"MRSA and Pseudomonas": {"test_system": "MRSA and Pseudomonas", "conditions": "cited from earlier work"}, "[1]": {"test": "Testing of smear on glass slide (crystals deployed)", "type": "physicochemical", "from_the_text": "An additional method was employed to replicate the clinical topical application. A smear of the various concentrations was made on the glass histology blank slide to show the amount of crystals deployed for the various concentrations."}, "[2]": {"conditions": "cited from earlier work"}, "[3]": {"conditions": "compared with vitamin E; cited from earlier work"}, "[4]": {"conditions": "cited from earlier work", "remark": "listed apart in the source"}, "[5]": {"conditions": "humans; cited from earlier work"}, "[6]": {"test": "CBD solubility testing in liquid vehicles", "type": "physicochemical", "from_the_text": "The liquid vehicles used are considered G.R.A.S. by FDA; distilled water, deionized water, propylene glycol and 70% isopropyl alcohol. The test containers were 125-milliliter graduated and measured sterile plastic from Wheaton company. A thermometer probe was used to assess the temperatures.\nTesting was done to determine the independent solubility of each reagent in the various vehicles. This was followed by testing the potential concentrations of each when combined. The testing started with an arbitrary solution concentration, one that could be altered for percentage of solubility."}}, "note": "“Also recorded” adds a separate entry of the source."}
{"smiles": "O=C(O)c1ccc(O)c(O)c1", "note": "[PCA, Protocatechuic acid]", "values": [{"measurement": "time to heal the wound", "setting": "MRSA and Pseudomonas; topical 25 uM PCA, mammalian skin wound", "result": 2, "unit": "days"}, {"measurement": "topical dose sufficient for controlling skin wound infection", "setting": "MRSA and Pseudomonas; topical, mammalian skin wound of MRSA and Pseudomonas", "result": 25, "unit": "µM"}, {"measurement": "crystals on glass slide smear", "setting": "[1]; concentrations of 2 and 3%", "result": "abundant crystals"}, {"measurement": "life (duration in the body)", "setting": "[2]; in vivo", "result": 8, "unit": "h"}, {"measurement": "oral availability", "setting": "[2]; oral, in 30 minutes", "result": 100, "unit": "%"}, {"measurement": "peak", "setting": "[2]; time of peak in the body", "result": 2, "unit": "min"}, {"measurement": "antioxidant power relative to vitamin E", "setting": "[3]", "result": 10, "unit": "times"}]}
{"smiles": "C=C(C)[C@@H]1CCC(C)=C[C@H]1c1c(O)cc(CCCCC)cc1O", "note": "[CBD, Cannabidiol]", "values": [{"measurement": "solubility in DMSO", "setting": "[4]; DMSO purged with an inert gas", "result": "~60", "unit": "mg/mL"}, {"measurement": "solubility in alcohol / isopropyl alcohol", "setting": "[4]; alcohol, at the original time of extraction, by the literature", "result": "up to 90%"}, {"measurement": "solubility in dimethyl formamide", "setting": "[4]; dimethyl formamide purged with an inert gas", "result": "~50", "unit": "mg/mL"}, {"measurement": "solubility in ethanol", "setting": "[4]; ethanol purged with an inert gas", "result": "approximately 35 mg/ml"}, {"measurement": "solubility in methanol", "setting": "[4]; methanol purged with an inert gas", "result": "~30", "unit": "mg/mL"}, {"measurement": "oral bioavailability", "setting": "[5]", "result": "approximately 6%"}, {"measurement": "crystals on glass slide smear", "setting": "[1]; 1% concentrations", "result": "very sparse crystals"}, {"measurement": "crystals on glass slide smear", "setting": "[1]; concentrations of 2 and 3%", "result": "abundant crystals"}, {"measurement": "elimination half-life", "setting": "[2]; in vivo", "result": "18 to 32", "unit": "h"}, {"measurement": "heating necessary for dissolving", "setting": "[6]; 0.247 (0.247%) in 100 ml distilled water", "result": 120, "unit": "degrees Fahrenheit"}, {"measurement": "solution outcome upon cooling", "setting": "[6]; 0.247 (0.247%) in 100 ml distilled water, heated to 120 degrees Fahrenheit then cooled", "result": "went out of solution"}, {"measurement": "time remained in solution", "setting": "[6]; 0.517 (0.5 grams) in 50 ml deionized water, preheated", "result": "at least 48 hours"}, {"measurement": "heating necessary for dissolving", "setting": "[6]; 1.0 gram (1%) in 100 ml distilled water", "result": 120, "unit": "degrees Fahrenheit"}, {"measurement": "solution outcome upon cooling", "setting": "[6]; 1.0 gram (1%) in 100 ml distilled water, heated to 120 degrees Fahrenheit then cooled", "result": "went out of solution"}, {"measurement": "time remained in solution", "setting": "[6]; 1 gram (1%) in 100 ml propylene glycol, preliminary heating to 120 Fahrenheit, after cooling", "result": "> 48", "unit": "h"}, {"measurement": "time soluble", "setting": "[6]; 1.02 gram in 100 ml isopropyl alcohol", "result": "more than 48 hours"}, {"measurement": "temperature at which it went into solution", "setting": "[6]; 1.025 grams in 50 ml deionized water", "result": 120, "unit": "Fahrenheit"}, {"measurement": "solution outcome", "setting": "[6]; 1.025 grams in 50 ml deionized water (2.05%), after cooling", "result": "came out of solution"}, {"measurement": "solution outcome upon cooling", "setting": "[6]; 2% in 100 ml propylene glycol, heated then cooled", "result": "came out of solution"}, {"measurement": "solution outcome", "setting": "[6]; 2 grams (4%) in 50 ml propylene glycol, with heating", "result": "did not go into solution even with heating; also recorded: not dissolved even on heating"}, {"measurement": "time remained soluble", "setting": "[6]; 3 grams in 100 ml 70% isopropyl alcohol", "result": "more than 48 hours"}, {"measurement": "temperature required to dissolve", "setting": "[6]; 40 milligrams of CBD in distilled water", "result": 140, "unit": "degrees Fahrenheit"}, {"measurement": "effect of heating in solution", "setting": "[6]; heated past 100 Fahrenheit", "result": "forms a tan “glue” like material"}, {"measurement": "effect of heating alone and/or in combination", "setting": "[6]; heating above 90 Fahrenheit", "result": "tan ‘glue’ or sticky material"}]}
